Organism: Rattus norvegicus
Assay: DrugMatrix - Regimen: Daily Repeat
Type: toxicity, organism-based, Sprague-Dawley
Set-up: regimen Daily Repeat, gender Male, age 6-8 weeks
Details: in vivo, po, 0 mg/kg, route oral GAVAGE, dose level Control, vehicle 100 % WATER; for ABSOLUTE BASOPHIL / ABSOLUTE EOSINOPHIL / ABSOLUTE LYMPHOCYTE / ABSOLUTE MONOCYTE / ABSOLUTE SEGMENTED NEUTROPHIL / BASOPHIL / EOSINOPHIL / ERYTHROCYTE COUNT / HEMATOCRIT / HEMOGLOBIN / LEUKOCYTE COUNT / LYMPHOCYTE / MEAN CORPUSCULAR HEMOGLOBIN / MEAN CORPUSCULAR HEMOGLOBIN CONCENTRATION / MEAN CORPUSCULAR VOLUME / MONOCYTE / NEUTROPHIL / NUCLEATED RED BLOOD CELLS / PLATELET COUNT: tissue Blood; for ALANINE AMINOTRANSFERASE / ALBUMIN / ALKALINE PHOSPHATASE / ASPARTATE AMINOTRANSFERASE / BLOOD UREA NITROGEN / CARBON DIOXIDE / CHLORIDE / CHOLESTEROL / CREATINE PHOSPHOKINASE / CREATININE / GLUCOSE / LACTATE DEHYDROGENASE / LIPASE / PHOSPHORUS / POTASSIUM / SODIUM / TOTAL BILIRUBIN / TOTAL PROTEIN / URIC ACID: tissue Plasma

COC(=O)C1=C(C)NC(C)=C(C(=O)OCC(C)C)C1c1ccccc1[N+](=O)[O-] (stereo unspecified) [NISOLDIPINE]
ABSOLUTE BASOPHIL (72 h, time 3 day): 0 CELLS/uL | ABSOLUTE EOSINOPHIL (72 h, time 3 day): 0 CELLS/uL | ABSOLUTE LYMPHOCYTE (72 h, time 3 day): 7802.17 CELLS/uL | ABSOLUTE MONOCYTE (72 h, time 3 day): 13.5 CELLS/uL | ABSOLUTE SEGMENTED NEUTROPHIL (72 h, time 3 day): 617.67 CELLS/uL | BASOPHIL (72 h, time 3 day): 0% | EOSINOPHIL (72 h, time 3 day): 0% | ERYTHROCYTE COUNT (72 h, time 3 day): 5.35 x10E6/uL | HEMATOCRIT (72 h, time 3 day): 33.02% | HEMOGLOBIN (72 h, time 3 day): 12.88 G/DL | LEUKOCYTE COUNT (72 h, time 3 day): 8.43 x10E3/uL | LYMPHOCYTE (72 h, time 3 day): 92.67% | MEAN CORPUSCULAR HEMOGLOBIN (72 h, time 3 day): 24.12 pg | MEAN CORPUSCULAR HEMOGLOBIN CONCENTRATION (72 h, time 3 day): 39.03 G/DL | MEAN CORPUSCULAR VOLUME (72 h, time 3 day): 61.8 fL | MONOCYTE (72 h, time 3 day): 0.17% | NEUTROPHIL (72 h, time 3 day): 7.17% | NUCLEATED RED BLOOD CELLS (72 h, time 3 day): 0 /100WBC | PLATELET COUNT (72 h, time 3 day): 1124.83 x10E3/uL | ALANINE AMINOTRANSFERASE (72 h, time 3 day): 54.17 u/L | ALBUMIN (72 h, time 3 day): 4.07 G/DL | ALKALINE PHOSPHATASE (72 h, time 3 day): 383.83 u/L | ASPARTATE AMINOTRANSFERASE (72 h, time 3 day): 82.17 u/L | BLOOD UREA NITROGEN (72 h, time 3 day): 13.67 mg/dL | CARBON DIOXIDE (72 h, time 3 day): 31 mmol/L | CHLORIDE (72 h, time 3 day): 100.83 MEQ/L | CHOLESTEROL (72 h, time 3 day): 65.17 mg/dL | CREATINE PHOSPHOKINASE (72 h, time 3 day): 228.33 u/L | CREATININE (72 h, time 3 day): 0.12 mg/dL | GLUCOSE (72 h, time 3 day): 148 mg/dL | LACTATE DEHYDROGENASE (72 h, time 3 day): 97.83 u/L | LIPASE (72 h, time 3 day): 9.17 u/L | PHOSPHORUS (72 h, time 3 day): 9.75 mg/dL | POTASSIUM (72 h, time 3 day): 5.85 MEQ/L | SODIUM (72 h, time 3 day): 147.02 MEQ/L | TOTAL BILIRUBIN (72 h, time 3 day): 0.18 mg/dL | TOTAL PROTEIN (72 h, time 3 day): 6.1 G/DL | URIC ACID (72 h, time 3 day): 0.5 mg/dL | ABSOLUTE BASOPHIL (120 h, time 5 day): 0 CELLS/uL | ABSOLUTE EOSINOPHIL (120 h, time 5 day): 0 CELLS/uL | ABSOLUTE LYMPHOCYTE (120 h, time 5 day): 10538 CELLS/uL | ABSOLUTE MONOCYTE (120 h, time 5 day): 15.83 CELLS/uL | ABSOLUTE SEGMENTED NEUTROPHIL (120 h, time 5 day): 762.83 CELLS/uL | BASOPHIL (120 h, time 5 day): 0% | EOSINOPHIL (120 h, time 5 day): 0% | ERYTHROCYTE COUNT (120 h, time 5 day): 5.49 x10E6/uL | HEMATOCRIT (120 h, time 5 day): 34.63% | HEMOGLOBIN (120 h, time 5 day): 13.72 G/DL | LEUKOCYTE COUNT (120 h, time 5 day): 11.32 x10E3/uL | LYMPHOCYTE (120 h, time 5 day): 92.67% | MEAN CORPUSCULAR HEMOGLOBIN (120 h, time 5 day): 24.97 pg | MEAN CORPUSCULAR HEMOGLOBIN CONCENTRATION (120 h, time 5 day): 39.57 G/DL | MEAN CORPUSCULAR VOLUME (120 h, time 5 day): 63.05 fL | MONOCYTE (120 h, time 5 day): 0.17% | NEUTROPHIL (120 h, time 5 day): 7.17% | NUCLEATED RED BLOOD CELLS (120 h, time 5 day): 0.17 /100WBC | PLATELET COUNT (120 h, time 5 day): 802 x10E3/uL | ALANINE AMINOTRANSFERASE (120 h, time 5 day): 50.5 u/L | ALBUMIN (120 h, time 5 day): 4.07 G/DL | ALKALINE PHOSPHATASE (120 h, time 5 day): 336.83 u/L | ASPARTATE AMINOTRANSFERASE (120 h, time 5 day): 81 u/L | BLOOD UREA NITROGEN (120 h, time 5 day): 14.17 mg/dL | CARBON DIOXIDE (120 h, time 5 day): 32 mmol/L | CHLORIDE (120 h, time 5 day): 98.33 MEQ/L | CHOLESTEROL (120 h, time 5 day): 69.17 mg/dL | CREATINE PHOSPHOKINASE (120 h, time 5 day): 253.33 u/L | CREATININE (120 h, time 5 day): 0.13 mg/dL | GLUCOSE (120 h, time 5 day): 153.67 mg/dL | LACTATE DEHYDROGENASE (120 h, time 5 day): 157 u/L | LIPASE (120 h, time 5 day): 9 u/L | PHOSPHORUS (120 h, time 5 day): 10.78 mg/dL | POTASSIUM (120 h, time 5 day): 6.11 MEQ/L | SODIUM (120 h, time 5 day): 144.57 MEQ/L | TOTAL BILIRUBIN (120 h, time 5 day): 0.15 mg/dL | TOTAL PROTEIN (120 h, time 5 day): 6.05 G/DL | URIC ACID (120 h, time 5 day): 0.73 mg/dL

Source: ChEMBL document CHEMBL3885881, “DrugMatrix”
